# Test results: ChEMBL document CHEMBL1201862, “PubChem BioAssay data set” (2004)
#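 The compound was tested at five concentrations on cells cultured in 96-well plates, with a 48-hour exposure period. Here, GI50 denotes the concentration required for 50% inhibition of growth.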 The source made the active and inactive calls. Rule as the data show it: active = GI50 up to about 1.1 µM and inactive = higher.
# Assays:
# Experiment in all cases: NCI tumour cell line growth inhibition, 48 h
# 786-0 = system: 786-0
# CCRF-CEM = system: CCRF-CEM
# COLO 205 = system: COLO 205
# DU-145 = system: DU-145
# HCT-15 = system: HCT-15
# HOP-62 = system: HOP-62
# HOP-92 = system: HOP-92
# HT-29 = system: HT-29
# Hs-578T = system: Hs-578T
# IGROV-1 = system: IGROV-1
# KM12 = system: KM12
# MCF7 = system: MCF7
# MDA-MB-435 = system: MDA-MB-435
# MOLT-4 = system: MOLT-4
# NCI-H460 = system: NCI-H460
# OVCAR-8 = system: OVCAR-8
# SF-295 = system: SF-295
# SW-620 = system: SW-620
# UACC-62 = system: UACC-62
# SNB-75 = system: SNB-75
SMILES,GI50 (786-0),GI50 (CCRF-CEM),GI50 (COLO 205),GI50 (DU-145),GI50 (HCT-15) [µM],GI50 (HOP-62),GI50 (HOP-92),GI50 (HT-29),GI50 (Hs-578T),GI50 (IGROV-1),GI50 (KM12),GI50 (MCF7),GI50 (MDA-MB-435),GI50 (MOLT-4),GI50 (NCI-H460),GI50 (OVCAR-8),GI50 (SF-295),GI50 (SW-620),GI50 (UACC-62),GI50 (SNB-75)
COc1ccc2c(c1)C(=O)CCc1cc(OC)c(OC)c(OC)c1-2,0.0542 µM (active),0.0512 µM (active),0.0512 µM (active),0.0335 µM (active),0.0359,0.0662 µM (active),0.135 µM (active),0.0374 µM (active),0.0243 µM (active),0.0553 µM (active),0.0298 µM (active),< 0.01 µM (active),0.0204 µM (active),0.0564 µM (active),0.0413 µM (active),0.0513 µM (active),0.0384 µM (active),0.0716 µM (active),0.075 µM (active),–
Oc1cc(-c2ccc(Cl)cc2)cn2c1nc1ccccc12,25.8 µM (inactive),–,> 100 µM (inactive),> 100 µM (inactive),> 100,31.3 µM (inactive),> 100 µM (inactive),> 100 µM (inactive),36.6 µM (inactive),9.55 µM (inactive),5.47 µM (inactive),> 100 µM (inactive),2.2 µM (inactive),–,5.21 µM (inactive),17.6 µM (inactive),> 100 µM (inactive),6.46 µM (inactive),29.4 µM (inactive),16.1 µM (inactive)
COc1ccc(/C=C2\NC(=S)N(CN3CCCCC3)C2=O)cc1,36.6 µM (inactive),39.5 µM (inactive),35.2 µM (inactive),71 µM (inactive),24.6,> 100 µM (inactive),76 µM (inactive),18.3 µM (inactive),17.8 µM (inactive),44.2 µM (inactive),73.1 µM (inactive),21.8 µM (inactive),52.7 µM (inactive),28.6 µM (inactive),–,15.4 µM (inactive),69.7 µM (inactive),29.3 µM (inactive),44.7 µM (inactive),21 µM (inactive)
Cc1ccc(Nc2n[nH]c(=S)s2)cc1,> 100 µM (inactive),> 100 µM (inactive),> 100 µM (inactive),> 100 µM (inactive),> 100,> 100 µM (inactive),> 100 µM (inactive),> 100 µM (inactive),> 100 µM (inactive),–,69 µM (inactive),> 100 µM (inactive),42.4 µM (inactive),> 100 µM (inactive),> 100 µM (inactive),> 100 µM (inactive),> 100 µM (inactive),> 100 µM (inactive),> 100 µM (inactive),> 100 µM (inactive)
O=C(O)C1CCCN1Cc1ccc2c(c1)OCO2 (stereo not given),> 100 µM (inactive),–,> 100 µM (inactive),> 100 µM (inactive),> 100,> 100 µM (inactive),> 100 µM (inactive),> 100 µM (inactive),> 100 µM (inactive),> 100 µM (inactive),> 100 µM (inactive),> 100 µM (inactive),> 100 µM (inactive),> 100 µM (inactive),> 100 µM (inactive),> 100 µM (inactive),> 100 µM (inactive),> 100 µM (inactive),> 100 µM (inactive),18.4 µM (inactive)
CS(=O)(=O)c1nc(Cl)c(Cl)c(C#N)c1Cl,1.94 µM (inactive),0.998 µM (active),1.45 µM (inactive),11.4 µM (inactive),1.61,19.3 µM (inactive),1.99 µM (inactive),1.97 µM (inactive),4.34 µM (inactive),6.59 µM (inactive),6.97 µM (inactive),3.42 µM (inactive),2.01 µM (inactive),0.838 µM (active),11.5 µM (inactive),2.88 µM (inactive),16.7 µM (inactive),1.14 µM (inactive),3.31 µM (inactive),9.89 µM (inactive)
COc1cc(OC)nc(NC(=O)NS(=O)(=O)c2cccc3ncn(C)c(=O)c23)n1,> 100 µM (inactive),> 100 µM (inactive),> 100 µM (inactive),> 100 µM (inactive),> 100,> 100 µM (inactive),> 100 µM (inactive),> 100 µM (inactive),67.1 µM (inactive),> 100 µM (inactive),–,> 100 µM (inactive),> 100 µM (inactive),> 100 µM (inactive),–,> 100 µM (inactive),> 100 µM (inactive),> 100 µM (inactive),> 100 µM (inactive),41.3 µM (inactive)
C=C1CC2(CCCC3(CC(=C)C(=O)O3)C2(C)C)OC1=O (stereo not given),1.81 µM (inactive),0.437 µM (active),2.21 µM (inactive),3.73 µM (inactive),0.491,13.9 µM (inactive),5.85 µM (inactive),3.82 µM (inactive),20.8 µM (inactive),8.83 µM (inactive),8.11 µM (inactive),3.4 µM (inactive),2.75 µM (inactive),0.302 µM (active),18.7 µM (inactive),1.38 µM (inactive),16.5 µM (inactive),1.39 µM (inactive),2 µM (inactive),16.7 µM (inactive)
CCCC/C=C1\CCC(CN2CCCCC2)C1=O (stereo not given),6.31 µM (inactive),7.73 µM (inactive),12 µM (inactive),> 100 µM (inactive),9.06,33 µM (inactive),10.9 µM (inactive),10.9 µM (inactive),> 100 µM (inactive),19.1 µM (inactive),–,> 100 µM (inactive),> 100 µM (inactive),8.38 µM (inactive),33.6 µM (inactive),12.8 µM (inactive),30.5 µM (inactive),7.91 µM (inactive),11.4 µM (inactive),> 100 µM (inactive)
COc1cc(/C=C2/SC(c3ccccc3)N(c3ccccc3)C2=O)cc(OC)c1OC (stereo not given),> 100 µM (inactive),10.6 µM (inactive),36.9 µM (inactive),> 100 µM (inactive),61.7,44.8 µM (inactive),> 100 µM (inactive),–,> 100 µM (inactive),–,30.3 µM (inactive),37.8 µM (inactive),33.4 µM (inactive),8.24 µM (inactive),76 µM (inactive),76.4 µM (inactive),27 µM (inactive),> 100 µM (inactive),24.4 µM (inactive),–
N#C/N=C1/c2ccccc2/C(=N/C#N)c2cc(CO)ccc21,36.8 µM (inactive),–,–,26 µM (inactive),27.2,42.6 µM (inactive),24.8 µM (inactive),26.7 µM (inactive),69.2 µM (inactive),29.4 µM (inactive),31.8 µM (inactive),30.6 µM (inactive),27.4 µM (inactive),16.4 µM (inactive),12.5 µM (inactive),37.8 µM (inactive),32.6 µM (inactive),25.6 µM (inactive),–,24.2 µM (inactive)
CCOC(=O)C1=C(C)N(Cc2ccc(Cl)cc2Cl)C2(O)C=CC(=O)C3C(=O)N(c4ccccc4)C(=O)C132 (stereo not given),3.24 µM (inactive),0.222 µM (active),1.7 µM (inactive),1.36 µM (inactive),1.52,2.87 µM (inactive),1.78 µM (inactive),1.69 µM (inactive),3.37 µM (inactive),1.78 µM (inactive),1.71 µM (inactive),0.857 µM (active),1.81 µM (inactive),1.41 µM (inactive),2.1 µM (inactive),2.02 µM (inactive),2.88 µM (inactive),1.32 µM (inactive),1.63 µM (inactive),–
N#Cc1nc(-c2ccco2)oc1N,> 10 µM (inactive),> 10 µM (inactive),> 10 µM (inactive),> 10 µM (inactive),> 10,> 10 µM (inactive),> 10 µM (inactive),> 10 µM (inactive),> 10 µM (inactive),> 10 µM (inactive),> 10 µM (inactive),> 10 µM (inactive),> 10 µM (inactive),> 10 µM (inactive),> 10 µM (inactive),> 10 µM (inactive),> 10 µM (inactive),> 10 µM (inactive),> 10 µM (inactive),> 10 µM (inactive)
CSc1c(C(N)=S)c(N)nn1-c1ccccc1,> 100 µM (inactive),–,> 100 µM (inactive),> 100 µM (inactive),> 100,–,> 100 µM (inactive),> 100 µM (inactive),> 100 µM (inactive),> 100 µM (inactive),> 100 µM (inactive),> 100 µM (inactive),> 100 µM (inactive),> 100 µM (inactive),> 100 µM (inactive),> 100 µM (inactive),–,> 100 µM (inactive),> 100 µM (inactive),> 100 µM (inactive)
O=c1[nH]c(=O)n(C2OC(CO)C(O)C2O)cc1OCCc1ccccc1 (stereo not given),> 100 µM (inactive),> 100 µM (inactive),> 100 µM (inactive),> 100 µM (inactive),> 100,> 100 µM (inactive),> 100 µM (inactive),> 100 µM (inactive),> 100 µM (inactive),> 100 µM (inactive),> 100 µM (inactive),> 100 µM (inactive),> 100 µM (inactive),> 100 µM (inactive),> 100 µM (inactive),> 100 µM (inactive),> 100 µM (inactive),> 100 µM (inactive),> 100 µM (inactive),–
